Measurements published in patent US20190151312A1, “HEPARAN SULFATE BIOSYNTHESIS INHIBITORS FOR THE TREATMENT OF DISEASES” (BioMarin Pharmaceutical Inc., priority 2014, published 2019).

System: GM01896 cells (MPS II dermal fibroblasts)
Assay: Assay 1: MPS cellular assay, MPS II (heparan sulfate disaccharide biomarkers by LC-MS)
Type: cell-based, human
Conditions: Assay 1 for MPS II, heparan sulfate disaccharide biomarkers (I2a4, I2a6, I2S0 and/or I2S6), read-out: IC50 Range
How it was run: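 Heparan sulfate disaccharide biomarkers quantified by LC-MS after heparinase I/II/III digestion and isotopic aniline labelling, using GM01896 MPS II fibroblasts exposed to compound (at or below 30 μM, 4-21 days). Values given as IC50 by curve fitting; cell viability checked with alamar blue or ATP.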

Q: Which IC50 does the source give for CN(C)CCn1cnc2cc(-c3cc(Nc4ccc(Cl)cc4)nc(N4CCOCC4)n3)ccc21 [[2-(5-{6-[(4-chlorophenyl)amino]-2-morpholin-4-ylpyrimidin-4-yl}benzimidazolyl)ethyl]dimethylamine] here?
A: The IC50 was 1000 to 5000 nM.

Q: For Cc1nc2ccc(-c3cc(Nc4ccc(Cl)cc4)nc(N4CCOCC4)n3)cc2n1CCN(C)C [[2-(6-{6-[(4-chlorophenyl)amino]-2-morpholin-4-ylpyrimidin-4-yl}-2-methylbenzimidazolyl)ethyl]dimethylamine], which IC50 is on record?
A: The IC50 was 1000 to 5000 nM.

Q: For Cc1nn(CCN(C)C)c2cc(-c3cc(Nc4ccc(Cl)cc4)nc(N4CCOCC4)n3)ccc12 [[2-(6-{6-[(4-chlorophenyl)amino]-2-morpholin-4-ylpyrimidin-4-yl}-3-methyl(1H-indazoly))ethyl]dimethylamine], which IC50 is on record?
A: Its IC50 is 1000 to 5000 nM.

Q: With CN(C)CCn1cnc2ccc(-c3cc(Nc4ccc(Cl)cc4)nc(N4CCOCC4)n3)cc21 [[2-(6-{6-[(4-chlorophenyl)amino]-2-morpholin-4-ylpyrimidin-4-yl}benzimidazolyl)ethyl]dimethylamine] as the compound, how does the IC50 read?
A: The IC50 was 500 to 1000 nM.

Q: Which IC50 does the source give for CN(C)CCCn1cnc2cc(-c3cc(Nc4ccc(Cl)cc4)nc(N4CCOCC4)n3)ccc21 [[3-(5-{6-[(4-chlorophenyl)amino]-2-morpholin-4-ylpyrimidin-4-yl}benzimidazolyl)propyl]dimethylamine] here?
A: Its IC50 is 500 to 1000 nM.

Q: How did the IC50 turn out when Cc1nc2ccc(-c3cc(Nc4ccc(Cl)cc4)nc(N4CCOCC4)n3)cc2n1CCCN(C)C [[3-(6-{6-[(4-chlorophenyl)amino]-2-morpholin-4-ylpyrimidin-4-yl}-2-methylbenzimidazolyl)propyl]dimethylamine] was run?
A: Its IC50 is 500 to 1000 nM.

Q: For CN(C)CCCn1cnc2ccc(-c3cc(Nc4ccc(Cl)cc4)nc(N4CCOCC4)n3)cc21 [[3-(6-{6-[(4-chlorophenyl)amino]-2-morpholin-4-ylpyrimidin-4-yl}benzimidazolyl)propyl]dimethylamine], which IC50 is on record?
A: Its IC50 is 500 to 1000 nM.

Same assay, conditions: Homo sapiens, Fibroblast, Assay 1 for MPS II, heparan sulfate disaccharide biomarkers (I2a4, I2a6, I2S0 and/or I2S6), read-out: IC50 Range

Q: With CNC(=O)c1ccc(Nc2cc(-c3ccc4cnn(CCCN5CCOCC5)c4c3)nc(N3CCOCC3)n2)cc1 [N-methyl[4-({2-morpholin-4-yl-6-[1-(3-morpholin-4-ylpropyl)(1H-indazol-6-yl)]pyrimidin-4-yl}amino)phenyl]carboxamide] as the compound, how does the IC50 read?
A: Its IC50 is less than 500 nM.

Q: CNC(=O)c1ccc(Nc2cc(-c3ccc4c(c3)ncn4CCCN3CCOCC3)nc(N3CCOCC3)n2)cc1 [N-methyl[4-({2-morpholin-4-yl-6-[1-(3-morpholin-4-ylpropyl)benzimidazol-5-yl]pyrimidin-4-yl}amino)phenyl]carboxamide] was tested. Which IC50 did it give?
A: Its IC50 is 1000 to 5000 nM.

Q: How did the IC50 turn out when CNC(=O)c1ccc(Nc2cc(-c3ccc4ncn(CCCN5CCOCC5)c4c3)nc(N3CCOCC3)n2)cc1 [N-methyl[4-({2-morpholin-4-yl-6-[1-(3-morpholin-4-ylpropyl)benzimidazol-6-yl]pyrimidin-4-yl}amino)phenyl]carboxamide] was run?
A: Its IC50 is 1000 to 5000 nM.

Q: For CNC(=O)c1ccc(Nc2cc(-c3ccc4cnn(CCCN5CCCC5)c4c3)nc(N3CCOCC3)n2)cc1 [N-methyl[4-({2-morpholin-4-yl-6-[1-(3-pyrrolidinylpropyl)(1H-indazol-6-yl)]pyrimidin-4-yl}amino)phenyl]carboxamide], which IC50 is on record?
A: Its IC50 is less than 500 nM.

Q: Which IC50 does the source give for CNC(=O)c1ccc(Nc2cc(-c3ccc4c(c3)ncn4CCCN3CCCC3)nc(N3CCOCC3)n2)cc1 [N-methyl[4-({2-morpholin-4-yl-6-[1-(3-pyrrolidinylpropyl)benzimidazol-5-yl]pyrimidin-4-yl}amino)phenyl]carboxamide] here?
A: Its IC50 is 500 to 1000 nM.

Q: Which IC50 does the source give for CN(C)CCn1ncc2ccc(-c3cc(Nc4ccc(Cl)cc4)nc(N4CCOCC4)n3)cc21 [[2-(6-{6-[(4-chlorophenyl)amino]-2-morpholin-4-ylpyrimidin-4-yl}(1H-indazolyl))ethyl]dimethylamine] here?
A: Its IC50 is 500 to 1000 nM.

Q: How did the IC50 turn out when CN(C)CCn1cc2ccc(-c3cc(Nc4ccc(Cl)cc4)nc(N4CCOCC4)n3)cc2n1 [[2-(6-{6-[(4-chlorophenyl)amino]-2-morpholin-4-ylpyrimidin-4-yl}(2H-indazol-2-yl))ethyl]dimethylamine] was run?
A: The IC50 was 500 to 1000 nM.

Q: With CN(C)CCc1nn(C)c2cc(-c3cc(Nc4ccc(Cl)cc4)nc(N4CCOCC4)n3)ccc12 [[2-(6-{6-[(4-chlorophenyl)amino]-2-morpholin-4-ylpyrimidin-4-yl}-1-methyl(1H-indazol-3-yl))ethyl]dimethylamine] as the compound, how does the IC50 read?
A: The IC50 was 500 to 1000 nM.

Q: How did the IC50 turn out when Cc1c2ccc(-c3cc(Nc4ccc(Cl)cc4)nc(N4CCOCC4)n3)cc2nn1CCN(C)C [[2-(6-{6-[(4-chlorophenyl)amino]-2-morpholin-4-ylpyrimidin-4-yl}-3-methyl(2H-indazol-2-yl))ethyl]dimethylamine] was run?
A: Its IC50 is 1000 to 5000 nM.

Q: How did the IC50 turn out when CN(C)CCc1nc2cc(Cc3cc(Nc4ccc(Cl)cc4)nc(N4CCOCC4)n3)ccc2[nH]1 [[2-(6-{6-[(4-chlorophenyl)amino]-2-morpholin-4-ylpyrimidin-4-yl}methylbenzimidazol-2-yl)ethyl]dimethylamine] was run?
A: Its IC50 is less than 500 nM.

Q: How did the IC50 turn out when CN(C)CCCn1ncc2ccc(-c3cc(Nc4ccc(Cl)cc4)nc(N4CCOCC4)n3)cc21 [[3-(6-{6-[(4-chlorophenyl)amino]-2-morpholin-4-ylpyrimidin-4-yl}(1H-indazolyl))propyl]dimethylamine] was run?
A: Its IC50 is 1000 to 5000 nM.

Q: With Cc1nn(CCCN(C)C)c2cc(-c3cc(Nc4ccc(Cl)cc4)nc(N4CCOCC4)n3)ccc12 [[3-(6-{6-[(4-chlorophenyl)amino]-2-morpholin-4-ylpyrimidin-4-yl}-3-methyl(1H-indazolyl))propyl]dimethylamine] as the compound, how does the IC50 read?
A: The IC50 was 500 to 1000 nM.

Q: With Cn1cc(-c2ccc(Nc3cc(-c4ccc5cnn(C)c5c4)nc(N4CCOCC4)n3)cc2)nn1 [[4-(1-methyl(1,2,3-triazol-4-yl))phenyl][6-(1-methyl(1H-indazol-6-yl))-2-morpholin-4-ylpyrimidin-4-yl]amine] as the compound, how does the IC50 read?
A: Its IC50 is 1000 to 5000 nM.

Q: For Cn1ccnc1-c1ccc(Nc2cc(-c3ccc4c(CCN5CCOCC5)nn(C)c4c3)nc(N3CCOCC3)n2)cc1 [[4-(1-methylimidazol-2-yl)phenyl]{6-[1-methyl-3-(2-morpholin-4-ylethyl)(1H-indazol-6-yl)]-2-morpholin-4-ylpyrimidin-4-yl}amine], which IC50 is on record?
A: The IC50 was 500 to 1000 nM.

Q: Cc1nncn1-c1ccc(Nc2cc(-c3ccc4cnn(C)c4c3)nc(N3CCOCC3)n2)cc1 [[4-(3-methyl(1,2,4-triazol-4-yl))phenyl][6-(1-methyl(1H-indazol-6-yl))-2-morpholin-4-ylpyrimidin-4-yl]amine] was tested. Which IC50 did it give?
A: Its IC50 is 500 to 1000 nM.

Q: Cc1nn(-c2ccc(Nc3cc(-c4ccc5c(C)nn(C)c5c4)nc(N4CCOCC4)n3)cc2)nc1C [[4-(4,5-dimethyl(1,2,3-triazol-2-yl))phenyl][6-(1,3-dimethyl(1H-indazol-6-yl))-2-morpholin-4-ylpyrimidin-4-yl]amine] was tested. Which IC50 did it give?
A: Its IC50 is 1000 to 5000 nM.

Q: Which IC50 does the source give for Cn1ncc2ccc(-c3cc(Nc4ccc(-c5[nH]ncc5F)cc4)nc(N4CCOCC4)n3)cc21 [[4-(4-fluoropyrazol-5-yl)phenyl][6-(1-methyl(1H-indazol-6-yl))-2-morpholin-4-ylpyrimidin-4-yl]amine] here?
A: The IC50 was 1000 to 5000 nM.

Q: How did the IC50 turn out when Cc1cnn(-c2ccc(Nc3cc(-c4ccc5cnn(C)c5c4)nc(N4CCOCC4)n3)cc2)n1 [[4-(4-methyl(1,2,3-triazol-2-yl))phenyl][6-(1-methyl(1H-indazol-6-yl))-2-morpholin-4-ylpyrimidin-4-yl]amine] was run?
A: Its IC50 is less than 500 nM.

Q: How did the IC50 turn out when Cc1cnn(-c2ccc(Nc3cc(-c4ccc5c(CCN6CCOCC6)nn(C)c5c4)nc(N4CCOCC4)n3)cc2)n1 [[4-(4-methyl(1,2,3-triazol-2-yl))phenyl]{6-[1-methyl-3-(2-morpholin-4-ylethyl)(1H-indazol-6-yl)]-2-morpholin-4-ylpyrimidin-4-yl}amine] was run?
A: The IC50 was less than 500 nM.
